Columns and labels:
SARS-CoV-2 M^pro [1] = biological target: T1, SARS-CoV-2 M^pro (Severe acute respiratory syndrome coronavirus 2, UniProt P0DTD1); type: biochemical
hCatB = hCatB (Homo sapiens, UniProt P07858); assay: hCatB enzyme inhibition assay; type: biochemical; details: hCatB vs hCatL
[2] = biological target: SARS-CoV-2 papain-like protease (PL^pro) (Severe acute respiratory syndrome coronavirus 2, UniProt P0DTD1); assay: SARS-CoV-2 PLpro enzyme inhibition screening; type: biochemical
[3] = biological target: T2, dengue virus NS2B/NS3 serine protease (Dengue virus type 2, UniProt P29990); assay: Dengue virus NS2B/NS3 protease inhibition screening; type: biochemical, dengue virus 2
T2 sequence (P29990 1476-1653 limits assumed): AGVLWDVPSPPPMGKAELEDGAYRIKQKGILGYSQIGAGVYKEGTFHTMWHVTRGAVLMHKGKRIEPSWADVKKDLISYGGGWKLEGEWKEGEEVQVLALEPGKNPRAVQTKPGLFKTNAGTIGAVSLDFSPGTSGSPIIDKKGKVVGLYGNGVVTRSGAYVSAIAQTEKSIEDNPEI

SARS-CoV-2 M^pro [4] = biological target: T1, SARS-CoV-2 M^pro; type: biochemical; details: inhibitor at 10-fold IC50, 60 min incubation, 25 h of dialysis

SMILES | binding affinity to SARS-CoV-2 M^pro, fold lower with respect to SPR38 (SARS-CoV-2 M^pro [1]) | Ki hCatB fold higher compared to Ki hCatL (hCatB) | inhibition of SARS-CoV-2 PL^pro at 100 μM [2] | inhibitory activity against dengue virus NS2B/NS3 serine protease at 100 μM [3] | enzymatic activity of M^pro recovered after dialysis (SARS-CoV-2 M^pro [4])
CCC[C@H](NC(=O)OCc1ccccc1)C(=O)N[C@H](/C=C/C(C)=O)C[C@@H]1CCNC1=O [SPR35, Benzyl ((S)-1-oxo-1-(((S,E)-5-oxo-1-((S)-2-oxopyrrolidin-3-yl)hex-3-en-2-yl)amino)pentan-2-yl)carbamate] | ~7 fold | – | – | – | –
CCCC[C@H](NC(=O)OCc1ccccc1)C(=O)N[C@H](/C=C/C(C)=O)C[C@@H]1CCNC1=O [SPR38, Benzyl ((S)-1-oxo-1-(((S,E)-5-oxo-1-((S)-2-oxopyrrolidin-3-yl)hex-3-en-2-yl)amino)hexan-2-yl)carbamate] | – | ~2 fold | no inhibition | no inhibitory activity | –
CC(=O)/C=C/[C@H](C[C@@H]1CCNC1=O)NC(=O)[C@H](CC1CC1)NC(=O)OCc1ccccc1 [SPR39, Benzyl ((S)-3-cyclopropyl-1-oxo-1-(((S,E)-5-oxo-1-((S)-2-oxopyrrolidin-3-yl)hex-3-en-2-yl)amino)propan-2-yl)carbamate] | – | ~6 fold | no inhibition | no inhibitory activity | did not show recovering enzymatic activities
CC(=O)/C=C/[C@H](C[C@@H]1CCNC1=O)NC(=O)[C@H](CC1CCCCC1)NC(=O)OCc1ccccc1 [SPR41, Benzyl ((S)-3-cyclohexyl-1-oxo-1-(((S,E)-5-oxo-1-((S)-2-oxopyrrolidin-3-yl)hex-3-en-2-yl)amino)propan-2-yl)carbamate] | – | – | no inhibition | no inhibitory activity | did not show recovering enzymatic activities
